Experimental data: patent publication US10647680B2, “Urea compound, preparation method therefor and medical use thereof” (Ancureall Pharmaceutical (Shanghai) Co., Ltd., priority 2016, dated 2020)

Assays:
[1] = tested on: Kasumi-1 (c-Kit N822K mutant type); test: In vitro growth inhibition (GI50), Kasumi-1; assay type: cell-based; conditions: Homo sapiens, Cell lines of leukemia, read-out: GI 50 Kasumi-1 Kit (N822K)
From the text: (§1) 1. Cell Lines and Cell Cultures
(§2) Tumor cell line is an effective cell model for studying the inhibition of tumor cell growth or proliferation in vitro. In the present invention, a representative tumor cell line was selected to determine the cell growth inhibition activity of the present compound. All cell lines used were from ATCC, DSMZ, and the Cell Bank of the Chinese Academy of Sciences. Cell culture conditions and methods were in accordance with the requirements of each cell line. Cells were subcultured in vitro for no more than 3 passages each time, and as required, single-clone purification and identification of cell lines could be carried out.
(§3) The cell culture media used were RPMI1640 (Gibco), MEM (Gibco), McCOY'S5A (Gibco), and IMDM (Gibco). The complete medium was prepared by supplement with 5˜20% fetal calf serum (Gibco), 1% double-antibiotics (10000 units/mL penicillin and 10000 units/mL), 2 mM glutamine or 1 mM sodium pyruvate, respectively.
(§4) The human acute […] monomonocyte leukemia cell line MV4-11 (FLT3 ITD+/+ mutant type, ATCC) was cultured in a complete medium comprising 1×IMDM and 10% FBS. Human acute myeloid leukemia cell line MOLM-13 (FLT3 ITD+/− mutant type, DSMZ), human acute lymphoblastic leukemia cell line RS4; 11 (FLT3 wild type, ATCC), human chronic granulocytic leukemia cell line K562 (FLT3 negative expression, positive expression of BCR-ABL fusion protein, ATCC), human promyelocytic leukemia cell line HL-60 (FLT3 wild type, ATCC), human B lymphoblastic leukemia cell line RAMOS (positive expression of Brutons tyrosine protein kinase, ATCC), human acute myeloid leukemia cell line Kasumi-1 (c-Kit N822K mutant type, ATCC), human acute monocytic leukemia cell line U937 (FLT3 wild-type, ATCC), human acute myeloid leukemia cell line OCI-AML3 (NPMc+ mutant type, ATCC), human acute myeloid leukemia cell line KG-1 (expressing FGFR1OP2-FGFR1 fusion protein, ATCC) were cultured in a complete medium comprising 1×RPMI1640 and 10% FBS, respectively.
(§5) Adherent cells were digested with 0.25% pancreatin-EDTA (Gibco). The suspension cells were collected by centrifugation. The supernatant was discarded and the cell pellet was resuspended and counted. Different cell concentrations (5˜10×10^4 cells/mL) were prepared according to the growth cycle of each cell line and then seeded on a 96-well plate (Corning), 100 μL/well. The cells were incubated overnight at 37° C., 5% CO2. The compounds were added to the cells on the second day with 2 wells in parallel. The final concentration of organic solvent shall not exceed 1%. The cells were continually incubated for 3 to 5 days, and then subjected to MTT assay.
(§6) The compound of the present invention and the control compound were dissolved in DMSO (Sigma) respectively, with the purity of more than 98%. The compound was stored in a concentration of 10 mM at −20° C. and diluted to 2- or 10-fold series prior to use.
(§7) Dojindo CCK8 reagent kit was used as MTT assay. THERMO […] FC meter was used as microplate reader.
(§8) For adherent cells, culture medium was removed and immediately replaced with the fresh prepared medium which contains 10% CCK8 reagent (100 μL/well). For the suspension cells, CCK8 was directly added to 10% of the final concentration. The cells were continually incubated for 1˜4 h. When a dark yellow color could be observed in the solvent control wells, the absorbance value at OD450 nm was measured and the cell growth rate was calculated according to the following formula: Cell Growth Rate (%)=100*(T−T0)/(C−T0) T=optical density of drug treatment cell well—optical density of blank control well; T0=optical density of cell well before drug treatment—optical density of blank control well; C=optical density of cell well of solvent control group—optical density of blank control well. The concentration value of 50% inhibition of cell growth (GI50) was calculated according to the drug concentration and cell growth rate curve. […]

[2] = tested on: RAMOS (positive expression of Brutons tyrosine protein kinase); test: In vitro growth inhibition (GI50), RAMOS; assay type: cell-based; conditions: Homo sapiens, Cell lines of leukemia, read-out: GI 50 Ramos BTK
From the text: as §1, §2, §3, §4
as §5, with “The” for “Adherent cells were digested with 0.25% pancreatin-EDTA (Gibco). The”
(§9) The compound was stored in a concentration of 10 mM at −20° C. and diluted to 2- or 10-fold series prior to use.
(§10) Dojindo CCK8 reagent kit was used as MTT assay. […] FC meter was used as microplate reader.
(§11) For adherent cells, culture medium was removed and immediately replaced with the fresh prepared medium which contains 10% CCK8 reagent (100 μL/well). For the suspension cells, CCK8 was directly added to 10% of the final concentration. The cells were continually incubated for 1˜4 h. […] The experiment was independently repeated 1˜3 times, and subject to biological statistical analysis. 4. Experimental Results
(§12) The initial concentration of the compound was 5,000 nM, then it was serially diluted by 2-fold or 10-fold to 0.01 nM. The GI50 value of each test compound was calculated according to the GI50 assay and calculation method. The experiments were repeated 1 to 3 times, and data were subjected to biological statistical analysis.

HL-60 (FLT3 wild type) = test: In vitro growth inhibition (GI50), HL-60; assay type: cell-based; conditions: Homo sapiens, Cell lines of leukemia, read-out: GI 50 HL60 FLT3 (WT)
From the text: as §1, §2, §3, §4, §5, §6, §7, §8

[3] = tested on: K562 (FLT3 negative expression, positive expression of BCR-ABL fusion protein); test: In vitro growth inhibition (GI50), K562; assay type: cell-based; conditions: Homo sapiens, Cell lines of leukemia, read-out: GI 50 K562 BCR-ABL
From the text: as §1, §2, §3, §4
as §5, with “The” for “Adherent cells were digested with 0.25% pancreatin-EDTA (Gibco). The”
as §9, §10, §11, §12

U937 (FLT3 wild-type) = test: In vitro growth inhibition (GI50), U937; assay type: cell-based; conditions: Homo sapiens, U-937; Cell lines of leukemia; read-out: GI 50 U937 FLT 3(WT)
From the text: as §1, §2, §3, §4
as §5, with “The” for “Adherent cells were digested with 0.25% pancreatin-EDTA (Gibco). The”
as §9, §10, §11, §12

[4] = tested on: KG-1 (expressing FGFR1OP2-FGFR1 fusion protein); test: In vitro growth inhibition (GI50), KG-1; assay type: cell-based; conditions: Homo sapiens; Cell lines of leukemia; read-out: GI 50 KG-1 FGFR1OP 2-FGFR1
From the text: as §1, §2, §3, §4
as §5, with “The” for “Adherent cells were digested with 0.25% pancreatin-EDTA (Gibco). The”
as §9, §10, §11, §12

[5] = tested on: MV4-11 (FLT3 ITD+/+ mutant type); test: In vitro growth inhibition (GI50), MV4-11; assay type: cell-based, human; conditions: Homo sapiens, MV4-11; Cell lines of leukemia; read-out: GI 50 MV4-11 FLT3 (ITD +/+)
From the text: as §1, §2, §3, §4
as §5, with “The” for “Adherent cells were digested with 0.25% pancreatin-EDTA (Gibco). The”
as §9, §10, §11, §12

[6] = tested on: OCI-AML3 (NPMc+ mutant type); test: In vitro growth inhibition (GI50), OCI-AML3; assay type: cell-based; conditions: Homo sapiens, OCI-AML-3; Cell lines of leukemia; read-out: GI 50 OCI- AML3 NPMc+
From the text: as §1, §2, §3, §4
as §5, with “The” for “Adherent cells were digested with 0.25% pancreatin-EDTA (Gibco). The”
as §9, §10, §11, §12

[7] = tested on: MOLM-13 (FLT3 ITD+/− mutant type); test: In vitro growth inhibition (GI50), MOLM-13; assay type: cell-based, human; conditions: Homo sapiens, MOLM-13; Cell lines of leukemia; read-out: GI 50 MOLM-13 FLT3 (ITD+/−)
From the text: as §1, §2, §3, §4
as §5, with “The” for “Adherent cells were digested with 0.25% pancreatin-EDTA (Gibco). The”
as §9, §10, §11, §12

RS4; 11 (FLT3 wild type) = test: In vitro growth inhibition (GI50), RS4; 11; assay type: cell-based, human; conditions: Homo sapiens, RS4-11; Cell lines of leukemia; read-out: GI 50 RS4: 11 FLT3 (WT)
From the text: as §1, §2, §3, §4
as §5, with “The” for “Adherent cells were digested with 0.25% pancreatin-EDTA (Gibco). The”
as §9, §10, §11, §12

Structure (SMILES)	GI50 [2] [µM]	GI50 (HL-60 (FLT3 wild type)) [µM]	GI50 [3] [µM]	GI50 (U937 (FLT3 wild-type)) [µM]	GI50 [5] [µM]	GI50 [6] [µM]	GI50 [7] [µM]	GI50 (RS4; 11 (FLT3 wild type)) [µM]	GI50 [1] [µM]	GI50 [4] [µM]
Cc1cc(NC(=O)Nc2cc(C(C)(C)C)on2)ccc1-n1cnc2ccccc21 [Compound 37, 1-(4-benzimidazol-1-yl-3-methyl-phenyl)-3-(5-tert-butyl-isoxazol-3-yl)-urea]	> 1	> 1	> 1	> 1	0.1 to 1	> 1	0.1 to 1	> 1	> 1	> 1
CCCCCCOc1ccc2c(c1)ncn2-c1ccc(NC(=O)Nc2cc(C(C)(C)C)n[nH]2)cc1 [Compound 73, 1-(5-tert-butyl-2H-pyrazol-3-yl)-3-[4-(5-hexyloxyl-benzimidazol-1-yl)-phenyl]-urea]	> 1	> 1	> 1	> 1	0.0001 to 0.001	> 1	0.0001 to 0.001	> 1	> 1	> 1
CCC(C)Oc1ccc2c(c1)ncn2-c1ccc(NC(=O)Nc2cc(C(C)(C)C)n[nH]2)cc1 (centres unmarked) [Compound 75, 1-[4-(5-sec-butoxy-benzimidazol-1-yl)-phenyl]-3-(5-tert-butyl-2H-pyrazol-3-yl)-urea]	> 1	> 1	> 1	> 1	0.0001 to 0.001	> 1	0.0001 to 0.001	> 1	> 1	> 1
Cc1ccc2ncn(-c3ccc(NC(=O)Nc4cc(C(C)(C)C)on4)cc3)c2n1 [Compound 54, 1-(5-tert-butyl-isoxazol-3-yl)-3-[4-(5-methylimidazo[4,5-b]pyridine-3-yl)-phenyl]-urea]	> 1	> 1	> 1	> 1	0.001 to 0.01	> 1	0.001 to 0.01	> 1	> 1	> 1
O=C(Nc1ccc(-n2cnc3ccccc32)cc1)Nc1ccon1 [Compound 1, 1-(4-benzimidazol-1-yl-phenyl)-3-isoxazol-3-yl-urea]	> 1	> 1	> 1	> 1	> 1	> 1	> 1	> 1	> 1	> 1

Now from value to molecule, other results behind:

GI50 [2] [µM]	GI50 (HL-60 (FLT3 wild type)) [µM]	GI50 [3] [µM]	GI50 (U937 (FLT3 wild-type)) [µM]	GI50 [5] [µM]	GI50 [6] [µM]	GI50 [7] [µM]	GI50 (RS4; 11 (FLT3 wild type)) [µM]	Structure (SMILES)	GI50 [1] [µM]	GI50 [4] [µM]
> 1	> 1	> 1	> 1	> 1	0.1 to 1	> 1	> 1	CCOC(=O)COc1ccc2c(c1)ncn2-c1ccc(NC(=O)n2nc(C(C)(C)C)cc2N)cc1 [Compound 124, ethyl (1-{4-[(5-amino-3-tert-butyl-pyrazol-1-carbonyl)-amino]-phenyl}-1H-benzimidazol-5-yloxy)-acetate]	> 1	> 1
> 1	> 1	> 1	> 1	0.01 to 0.1	> 1	0.01 to 0.1	> 1	COc1ccc(-n2nc(C(C)(C)C)cc2NC(=O)Nc2ccc(-n3cnc4ccccc43)cc2)cc1 [Compound 106, 1-(4-benzimidazol-1-yl-phenyl)-3-[5-tert-butyl-2-(4-methoxyl-phenyl)-2H-pyrazol-3-yl]-urea]	> 1	> 1
> 1	> 1	> 1	> 1	0.1 to 1	> 1	0.1 to 1	> 1	CC(C)(C)c1ccn(C(=O)Nc2ccc(-n3cnc4ccccc43)cc2)n1 [Compound 130, 3-tert-butyl-pyrazol-1-carboxylic acid (4-benzimidazol-1-yl-phenyl)-amide]	> 1	> 1
> 1	> 1	> 1	> 1	0.0001 to 0.001	> 1	0.0001 to 0.001	> 1	Cn1nc(C(C)(C)C)cc1NC(=O)Nc1ccc(-n2cnc3ccccc32)cc1 [Compound 100, 1-(4-benzimidazol-1-yl-phenyl)-3-(5-tert-butyl-2-methyl-2H-pyrazol-3-yl)-urea]	> 1	> 1
> 1	> 1	> 1	> 1	0.0001 to 0.001	> 1	0.0001 to 0.001	> 1	CC(C)(C)c1cc(NC(=O)Nc2ccc(-n3cnc4cc(OCCN5CCCCCC5)ccc43)cc2)[nH]n1 [Compound 91, 1-{4-[5-(2-azepan-1-yl-ethoxy)-benzimidazol-1-yl]-phenyl}-3-(5-tert-butyl-2H-pyrazol-3-yl)-urea]	> 1	> 1
> 1	> 1	> 1	> 1	0.001 to 0.01	> 1	0.001 to 0.01	> 1	CC(C)(C)c1cc(N)n(C(=O)Nc2ccc(-n3cnc4cc(OCC5CCCO5)ccc43)cc2)n1 (centres unmarked) [Compound 123, 5-amino-3-tert-butyl-pyrazol-1-carboxylic acid {4-[5-(tetrahydro-furan-2-ylmethoxy)-benzimidazol-1-yl]-phenyl}-amide]	> 1	> 1
